Measurements as given in patent publication US12612426B2, “Aryl glucoside derivative” (Shanghai Zheye Biotechnology Co. Ltd., priority 2020, dated 2026).

What was measured:
[1] = Lipid and water solubility of click-chemistry candidate compound compared with Example 4; assay type: physicochemical
Excerpt: The compound of Example 4, copper sulfate, and a cyclopropyl azide compound (refer to Chemische Berichte (1985), 118(4), 1564-1574; Science of Synthesis (2010), 41, 543-612; Nature (London, United Kingdom) (2019), 574(7776), 86-89) were stirred and reacted at room temperature, and after the reaction was completed, target compounds could be prepared by silica gel column chromatography. Rf: 0.16 (dichloromethane:methanol=10:1).

SGLT1 [2] = target: T1, SGLT1 (Homo sapiens, UniProt P13866); test: SGLT1 inhibitor activity experiment 1; assay type: cell-based
T1 sequence (P13866 1-664): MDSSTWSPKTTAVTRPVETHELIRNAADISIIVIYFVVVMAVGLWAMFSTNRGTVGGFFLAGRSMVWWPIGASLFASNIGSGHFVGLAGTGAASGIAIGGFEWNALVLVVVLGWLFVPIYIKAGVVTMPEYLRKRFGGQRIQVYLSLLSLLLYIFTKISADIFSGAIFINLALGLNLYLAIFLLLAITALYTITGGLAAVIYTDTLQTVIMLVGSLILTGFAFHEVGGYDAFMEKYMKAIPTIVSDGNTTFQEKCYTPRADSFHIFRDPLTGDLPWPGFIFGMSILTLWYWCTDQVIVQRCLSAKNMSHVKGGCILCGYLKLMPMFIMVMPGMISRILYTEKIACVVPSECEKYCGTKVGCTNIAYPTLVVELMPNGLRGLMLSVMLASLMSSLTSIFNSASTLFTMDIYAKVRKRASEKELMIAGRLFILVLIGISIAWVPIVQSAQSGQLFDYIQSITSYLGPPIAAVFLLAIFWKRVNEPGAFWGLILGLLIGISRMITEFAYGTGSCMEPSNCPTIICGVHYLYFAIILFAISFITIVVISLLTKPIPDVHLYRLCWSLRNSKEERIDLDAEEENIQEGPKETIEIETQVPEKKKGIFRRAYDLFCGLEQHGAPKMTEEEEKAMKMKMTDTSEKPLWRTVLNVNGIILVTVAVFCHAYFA
Protocol: The inhibitory activity of SGLT1 was tested with reference to the method described in document (Journal of Medicinal Chemistry 2017, 60, 710-721, Discovery of LX2761, a Sodium-Dependent Glucose Cotransporter 1 (SGLT1) Inhibitor Restricted to the Intestinal Lumen, for the Treatment of Diabetes).

[3] = Pharmacokinetic study in rats; assay type: in vivo, SD rats; conditions: 10 mg/kg oral gavage
Protocol: 5. Pharmacokinetic Study in Rats • Experimental animals: SPF male SD rats; • Dosage and method of administration: 10 mg/kg, oral gavage. • Research compound: Dapagliflozin, the compound of Example 4, the compound of Example 6, and the comparative compound 6; • Test method: Before administration (0), and 1, 4, 8, and 24 hours after administration, 0.2 ml of blood was collected from orbital venous plexus, anticoagulated with heparin, and plasma was collected.
Note: The comparative compound 6 is the compound numbered “6” in the document (Journal of Medicinal Chemistry 2017, 60, 710-721, Discovery of LX2761, a Sodium-Dependent Glucose Cotransporter 1 (SGLT1) Inhibitor Restricted to the Intestinal Lumen, for the Treatment of Diabetes). It was prepared and identified according to the synthetic method described in the document.

[4] = Oral glucose tolerance test (OGTT) after continuous administration in rats for 14 days; assay type: in vivo, SD rats; conditions: for blood sugar level in OGTT: 0.009 mg/kg oral gavage for 14 days, OGTT on day 15; for loose stools: 0.009 mg/kg oral gavage, within 48 hours before and after the experiment
Protocol: • Experimental animals: SPF male SD rats; • Compound preparation: an appropriate amount of the compounds of Example 1, Example 3, and Example 4 were weighed, and uniformly suspended with an appropriate amount of 0.5% CMC-Na solution; • Preparation of glucose solution: an appropriate amount of glucose powder was weighed and dissolved with an appropriate amount of pure water; • Dosage and method of administration: 0.009 mg/kg, oral gavage.
Experimental process: the animals were fed a normal diet with consecutive administration for 14 days, and the glucose tolerance test was performed on day 15, blood glucose was detected before administration (−30 min), before giving glucose (0 min), and 10, 30, 60, and 120 min after giving glucose solution, and the defecation of animals was observed.

SGLT1 [5] = target: T1, SGLT1; test: hSGLT1 inhibitor activity experiment 2: 2-NBDG uptake by HEK293 cells stably expressing human SGLT1; assay type: cell-based; set-up: expressed in transfected cells; conditions: read-out: SGLT1 Inhibitory Activity
Protocol: Inhibitory activity testing was performed with reference to a similar method described in document [Acta Pharmaceutica Sinica 2017, 52 (6): 897-903; Nature Protocols (2007), 2(3), 753-762; Journal of Biochemical and Biophysical Methods (2005), 64(3), 207-215; Diabetes Technology & Therapeutics (2011), 13(7), 743-775].
In this experiment, the in vitro activity assay was evaluated using the uptake of 2-NBDG (2-Deoxy-2-[(7-nitro-2,1,3-benzoxadiazol-4-yl)amino]-D-glucose, CAS NO: 186689-07-6) by human embryonic kidney epithelial cells (HEK293, stably expressing human SGLT1), and the SGLT1 inhibitory activity of the target compound was determined by measuring its half-maximal inhibitory concentration (IC50).
HEK293 cells that can stably express human SGLT1 gene were inoculated into a 96-well clear-bottom black plate containing DMEM medium. The cells were incubated at 37° C., 5% CO2 in a cell incubator. The medium in the 96-well plate was aspirated, and the plate was treated with low-glucose serum-free DMEM medium, and washed once with non-specific uptake buffer and once with Na^+-dependent uptake buffer. Uptake buffer containing test compound was added to each well of cells, followed by uptake buffer containing 2-NBDG for glucose uptake, and the cell plate was incubated at 37° C., 5% CO2. The compounds were gradiently diluted. The uptake reaction was stopped by removing the culture medium, and after washing the cells with ice-cold uptake buffer, the washing solution was removed. The cells were lysed by adding NaOH, and the content of 2-NBDG in the cells was detected by a fluorescence microplate reader. The protein concentration of the lysate was measured by BCA method, the uptake of 2-NBDG was quantified by fluorescence intensity/protein content, and the obtained data were analyzed using GraphPad Prism to determine the median inhibitory concentration (IC50) of the compound to be tested. […]

| SMILES | IC50 (SGLT1 [2]) [nM] | IC50 (SGLT1 [5]) [nM] | also measured |
| --- | --- | --- | --- |
| CS[C@H]1O[C@@H](c2ccc(C)c(Cc3ccc(CCCC(=O)NC(C)(C)C(=O)NCCN(C)Cc4cn(C5CC5)nn4)cc3)c2)[C@H](O)[C@@H](O)[C@@H]1O |  |  | lipid solubility compared with Example 4 [1]: better; water solubility compared with Example 4 [1]: better |
| C#CCN(C)CCNC(=O)C(C)(C)NC(=O)CCOc1ccc(Cc2cc([C@@H]3O[C@H](SC)[C@@H](O)[C@H](O)[C@H]3O)ccc2C#C)cc1 [Example 8] | < 50 |  |  |
| C#CCN(C)CCNC(=O)C(C)(C)NC(=O)C/C=C/c1ccc(Cc2cc([C@@H]3O[C@H](SC)[C@@H](O)[C@H](O)[C@H]3O)ccc2C)cc1 [Example 7] | < 50 |  |  |
| C#CCN(C)CCNC(=O)C(C)(C)NC(=O)CCOCc1ccc(Cc2cc([C@@H]3O[C@H](SC)[C@@H](O)[C@H](O)[C@H]3O)ccc2C)cc1 [Example 6] | < 50 |  | drug concentration in plasma [3]: did not reach the detection limit |
| CS[C@H]1O[C@@H](c2ccc(C)c(Cc3ccc(CCCC(=O)NC(C)(C)C(=O)NCCN(C)Cc4ccccc4)cc3)c2)[C@H](O)[C@@H](O)[C@@H]1O [Example 3] |  | 0.83 | blood sugar level in OGTT [4]: significantly reduce the blood sugar level of rats; loose stools [4]: no loose stools were observed |
| CS[C@H]1O[C@@H](c2ccc(C)c(Cc3ccc(CCCC(=O)NC(C)(C)C(=O)NCCN4CCN(C)CC4)cc3)c2)[C@H](O)[C@@H](O)[C@@H]1O [Example 2] |  | 1.27 |  |
| CS[C@H]1O[C@@H](c2ccc(C)c(Cc3ccc(CCCC(=O)NC(C)(C)C(=O)NCCN4CCCC4)cc3)c2)[C@H](O)[C@@H](O)[C@@H]1O [Example 1] |  | 0.67 | blood sugar level in OGTT [4]: significantly reduce the blood sugar level of rats; loose stools [4]: no loose stools were observed |
| C#CCN(C)CCNC(=O)C(C)(C)NC(=O)CCOc1ccc(Cc2cc([C@@H]3O[C@H](SC)[C@@H](O)[C@H](O)[C@H]3O)ccc2C)cc1 [Example 5] | < 50 |  |  |
